Laboratory results taken from ChEMBL document CHEMBL5465560, “Selectivity Literature for EUbOPEN Chemogenomic Library” (2024).
Blank lines part the entries; values can stand above or below the molecule they belong to.

Assays:
[1] = test system: Mast/stem cell growth factor receptor Kit (Homo sapiens), P10721 [D816V]; conditions: at 10 µM
[2] = target: L-type calcium channel Cav1.2 (CACNA1C) (Homo sapiens, UniProt Q13936); test: Selectivity interaction (Eurofins CEREP Diversity Profile (receptors and ion channels)) EUB0000279b CACNA1C; conditions: at 10 µM, read-out: % of control
[3] = target: T1, Membrane-associated tyrosine- and threonine-specific cdc2-inhibitory kinase (Homo sapiens) (UniProt Q99640); test: Selectivity interaction (Ambit KINOMEscan and KiNATiv profiling in Jurkat cells) EUB0000090b PKMYT1; assay type: cell-based; conditions: at 1 µM
T1 sequence (whole entry): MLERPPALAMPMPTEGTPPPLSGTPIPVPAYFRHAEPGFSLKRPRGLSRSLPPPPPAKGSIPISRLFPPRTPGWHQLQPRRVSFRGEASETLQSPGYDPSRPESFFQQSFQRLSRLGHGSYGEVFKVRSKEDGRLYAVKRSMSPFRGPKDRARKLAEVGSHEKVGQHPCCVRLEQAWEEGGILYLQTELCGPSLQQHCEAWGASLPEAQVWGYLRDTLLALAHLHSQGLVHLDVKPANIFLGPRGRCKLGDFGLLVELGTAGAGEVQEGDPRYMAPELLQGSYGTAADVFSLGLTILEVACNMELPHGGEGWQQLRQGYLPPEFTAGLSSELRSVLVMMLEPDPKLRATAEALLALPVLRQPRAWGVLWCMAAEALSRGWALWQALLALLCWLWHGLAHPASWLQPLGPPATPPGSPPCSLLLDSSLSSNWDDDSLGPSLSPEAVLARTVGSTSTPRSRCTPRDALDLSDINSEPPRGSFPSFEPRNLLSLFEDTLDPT

[4] = target: Serine/threonine-protein kinase 25 (Homo sapiens) (UniProt O00506); test: Selectivity interaction (KinomeScan (DiscoverX)) EUB0000655a STK25; conditions: at 10 µM
[5] = target: Cyclin-dependent kinase 9 (Homo sapiens, UniProt P50750); test: Selectivity interaction (KinomeScan (DiscoverX)) EUB0000618a CDK9; conditions: at 10 µM
Cyclin-dependent kinase 9, sequence (P50750 whole entry, canonical isoform): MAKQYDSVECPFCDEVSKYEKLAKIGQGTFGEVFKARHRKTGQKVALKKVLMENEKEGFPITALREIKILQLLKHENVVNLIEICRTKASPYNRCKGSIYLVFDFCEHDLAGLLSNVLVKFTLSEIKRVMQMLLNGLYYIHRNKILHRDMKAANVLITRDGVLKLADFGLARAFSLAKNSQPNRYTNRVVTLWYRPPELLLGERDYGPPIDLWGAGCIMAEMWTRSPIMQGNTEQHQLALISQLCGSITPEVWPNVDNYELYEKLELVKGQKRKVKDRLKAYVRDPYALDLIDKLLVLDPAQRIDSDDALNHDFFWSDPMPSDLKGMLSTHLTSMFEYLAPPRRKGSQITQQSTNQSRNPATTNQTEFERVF

[6] = target: Phosphatidylinositol 4,5-bisphosphate 3-kinase catalytic subunit alpha isoform (Homo sapiens) (UniProt P42336); test: (§1) Selectivity interaction (KinomeScan (DiscoverX)) EUB0000618a PIK3CA; conditions: at 10 µM
[7] = test system: Phosphatidylinositol 4,5-bisphosphate 3-kinase catalytic subunit alpha isoform (Homo sapiens), P42336 [C420R]; test: as §1; conditions: at 10 µM
[8] = test system: Phosphatidylinositol 4,5-bisphosphate 3-kinase catalytic subunit alpha isoform (Homo sapiens), P42336 [E542K]; test: as §1; conditions: at 10 µM
[9] = test system: Phosphatidylinositol 4,5-bisphosphate 3-kinase catalytic subunit alpha isoform (Homo sapiens), P42336 [E545A]; test: as §1; conditions: at 10 µM
[10] = test system: Phosphatidylinositol 4,5-bisphosphate 3-kinase catalytic subunit alpha isoform (Homo sapiens), P42336 [E545K]; test: as §1; conditions: at 10 µM
Phosphatidylinositol 4,5-bisphosphate 3-kinase catalytic subunit alpha isoform (Homo sapiens), P42336 [E545K], sequence (P42336 whole entry E545K, canonical isoform): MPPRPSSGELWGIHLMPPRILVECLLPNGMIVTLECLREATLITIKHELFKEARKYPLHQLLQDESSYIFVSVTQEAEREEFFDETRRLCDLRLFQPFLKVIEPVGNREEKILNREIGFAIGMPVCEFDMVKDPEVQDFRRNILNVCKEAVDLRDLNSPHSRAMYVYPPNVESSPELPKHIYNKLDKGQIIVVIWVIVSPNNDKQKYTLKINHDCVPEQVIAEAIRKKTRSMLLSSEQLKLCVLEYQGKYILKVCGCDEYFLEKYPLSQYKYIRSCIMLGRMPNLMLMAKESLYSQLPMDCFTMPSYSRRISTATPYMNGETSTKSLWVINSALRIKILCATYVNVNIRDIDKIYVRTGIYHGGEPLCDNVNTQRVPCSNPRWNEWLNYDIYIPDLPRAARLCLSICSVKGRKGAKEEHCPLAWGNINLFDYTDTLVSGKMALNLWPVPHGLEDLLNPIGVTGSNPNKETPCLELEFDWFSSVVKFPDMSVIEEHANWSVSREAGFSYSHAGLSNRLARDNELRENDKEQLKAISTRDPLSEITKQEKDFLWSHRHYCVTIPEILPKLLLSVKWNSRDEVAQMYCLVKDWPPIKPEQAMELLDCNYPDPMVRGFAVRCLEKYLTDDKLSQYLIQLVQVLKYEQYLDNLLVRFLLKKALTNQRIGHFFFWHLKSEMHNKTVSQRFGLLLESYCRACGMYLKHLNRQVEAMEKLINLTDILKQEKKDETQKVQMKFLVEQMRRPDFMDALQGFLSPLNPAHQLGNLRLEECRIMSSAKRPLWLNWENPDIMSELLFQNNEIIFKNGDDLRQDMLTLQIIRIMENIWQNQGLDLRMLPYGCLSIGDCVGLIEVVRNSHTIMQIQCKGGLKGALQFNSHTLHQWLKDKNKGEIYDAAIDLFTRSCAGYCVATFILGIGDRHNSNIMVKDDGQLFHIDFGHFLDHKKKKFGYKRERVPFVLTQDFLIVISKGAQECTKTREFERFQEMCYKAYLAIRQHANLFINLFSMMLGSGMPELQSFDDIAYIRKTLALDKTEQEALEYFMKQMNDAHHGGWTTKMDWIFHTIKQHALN

[11] = test system: Phosphatidylinositol 4,5-bisphosphate 3-kinase catalytic subunit alpha isoform (Homo sapiens), P42336 [H1047L]; test: as §1; conditions: at 10 µM
[12] = test system: Phosphatidylinositol 4,5-bisphosphate 3-kinase catalytic subunit alpha isoform (Homo sapiens), P42336 [H1047Y]; test: as §1; conditions: at 10 µM
Phosphatidylinositol 4,5-bisphosphate 3-kinase catalytic subunit alpha isoform (Homo sapiens), P42336 [H1047Y], sequence (P42336 whole entry H1047Y, canonical isoform): as the sequence (P42336 whole entry E545K, canonical isoform) above, with K545E, H1047Y counted along it

[13] = test system: Phosphatidylinositol 4,5-bisphosphate 3-kinase catalytic subunit alpha isoform (Homo sapiens), P42336 [M1043I]; test: as §1; conditions: at 10 µM
Phosphatidylinositol 4,5-bisphosphate 3-kinase catalytic subunit alpha isoform (Homo sapiens), P42336 [M1043I], sequence (P42336 whole entry M1043I, canonical isoform): as the sequence (P42336 whole entry E545K, canonical isoform) above, with K545E, M1043I counted along it

[14] = test system: Phosphatidylinositol 4,5-bisphosphate 3-kinase catalytic subunit alpha isoform (Homo sapiens), P42336 [Q546K]; test: as §1; conditions: at 10 µM
[15] = target: Homeodomain-interacting protein kinase 2 (Homo sapiens, UniProt Q9H2X6); test: Selectivity interaction (KinomeScan (DiscoverX)) EUB0000607a HIPK2; conditions: at 10 µM
Homeodomain-interacting protein kinase 2, sequence (Q9H2X6 whole entry, looked up): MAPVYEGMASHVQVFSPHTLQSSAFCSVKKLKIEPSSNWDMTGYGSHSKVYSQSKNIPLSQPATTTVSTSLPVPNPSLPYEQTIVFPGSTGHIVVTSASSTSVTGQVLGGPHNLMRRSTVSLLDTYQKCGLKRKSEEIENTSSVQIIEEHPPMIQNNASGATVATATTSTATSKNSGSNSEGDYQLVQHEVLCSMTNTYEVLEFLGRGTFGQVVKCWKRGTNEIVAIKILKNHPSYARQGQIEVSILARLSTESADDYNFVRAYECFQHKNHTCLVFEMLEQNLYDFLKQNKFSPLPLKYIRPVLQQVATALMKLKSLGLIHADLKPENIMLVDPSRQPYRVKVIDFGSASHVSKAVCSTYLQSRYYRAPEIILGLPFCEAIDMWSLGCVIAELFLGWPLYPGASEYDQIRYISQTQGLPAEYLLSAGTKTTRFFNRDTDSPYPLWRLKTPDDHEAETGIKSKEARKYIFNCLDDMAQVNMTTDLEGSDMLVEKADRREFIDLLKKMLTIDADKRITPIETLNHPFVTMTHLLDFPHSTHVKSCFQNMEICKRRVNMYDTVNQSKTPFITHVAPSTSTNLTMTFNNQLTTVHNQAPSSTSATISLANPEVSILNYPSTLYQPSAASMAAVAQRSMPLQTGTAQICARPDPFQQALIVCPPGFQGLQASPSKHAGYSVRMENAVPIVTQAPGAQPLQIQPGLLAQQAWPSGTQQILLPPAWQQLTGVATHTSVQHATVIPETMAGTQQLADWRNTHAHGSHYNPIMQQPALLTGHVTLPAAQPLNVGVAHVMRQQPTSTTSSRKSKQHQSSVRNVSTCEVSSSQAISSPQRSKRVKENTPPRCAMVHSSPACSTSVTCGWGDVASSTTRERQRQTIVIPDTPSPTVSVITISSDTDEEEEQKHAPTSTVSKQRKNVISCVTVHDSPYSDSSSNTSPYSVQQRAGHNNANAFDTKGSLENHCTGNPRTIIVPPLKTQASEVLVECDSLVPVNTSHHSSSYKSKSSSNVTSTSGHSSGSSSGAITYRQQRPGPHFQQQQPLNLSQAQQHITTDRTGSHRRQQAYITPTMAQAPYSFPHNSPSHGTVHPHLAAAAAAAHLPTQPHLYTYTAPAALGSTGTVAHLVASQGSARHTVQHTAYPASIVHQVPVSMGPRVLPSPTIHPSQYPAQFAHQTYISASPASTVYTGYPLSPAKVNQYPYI

[16] = target: Tyrosine-protein kinase Fer (Homo sapiens) (UniProt P16591); test: Selectivity interaction (KinomeScan (DiscoverX)) EUB0000595a FER; conditions: at 10 µM
[17] = target: T2, Casein kinase I isoform alpha-like (Homo sapiens) (UniProt Q8N752); conditions: at 10 µM
T2 sequence (whole entry): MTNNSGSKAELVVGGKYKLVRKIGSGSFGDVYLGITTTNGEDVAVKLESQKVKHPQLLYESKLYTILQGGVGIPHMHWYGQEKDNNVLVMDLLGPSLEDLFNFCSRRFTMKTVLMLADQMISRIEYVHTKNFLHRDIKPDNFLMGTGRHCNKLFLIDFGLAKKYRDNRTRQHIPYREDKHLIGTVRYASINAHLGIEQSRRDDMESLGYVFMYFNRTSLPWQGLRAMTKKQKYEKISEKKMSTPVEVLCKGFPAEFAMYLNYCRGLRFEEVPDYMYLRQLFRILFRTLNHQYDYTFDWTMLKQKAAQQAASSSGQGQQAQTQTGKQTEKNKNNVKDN

[18] = target: RAC-alpha serine/threonine-protein kinase (Homo sapiens, UniProt P31749); test: Selectivity interaction (Upstate Kinase Profiler service (Millipore)) EUB0000056c AKT1; conditions: at 1 µM
[19] = target: Cyclin-dependent kinase 17 (Homo sapiens) (UniProt Q00537); test: Selectivity interaction (Kinase panel (KiNativ target engagement assay in Jurkat cells)) EUB0001635a CDK17; assay type: cell-based; conditions: Selectivity number of off-targets 0.0, Selectivity number of targets 233.0, Source Knowledge https://www.sciencedirect.com/science/article/pii/S2451945619300674?via%3Dihub, at 1 µM
[20] = target: T3, Rhodopsin kinase GRK7 (Homo sapiens) (UniProt Q8WTQ7); conditions: at 10 µM
T3 sequence (whole entry): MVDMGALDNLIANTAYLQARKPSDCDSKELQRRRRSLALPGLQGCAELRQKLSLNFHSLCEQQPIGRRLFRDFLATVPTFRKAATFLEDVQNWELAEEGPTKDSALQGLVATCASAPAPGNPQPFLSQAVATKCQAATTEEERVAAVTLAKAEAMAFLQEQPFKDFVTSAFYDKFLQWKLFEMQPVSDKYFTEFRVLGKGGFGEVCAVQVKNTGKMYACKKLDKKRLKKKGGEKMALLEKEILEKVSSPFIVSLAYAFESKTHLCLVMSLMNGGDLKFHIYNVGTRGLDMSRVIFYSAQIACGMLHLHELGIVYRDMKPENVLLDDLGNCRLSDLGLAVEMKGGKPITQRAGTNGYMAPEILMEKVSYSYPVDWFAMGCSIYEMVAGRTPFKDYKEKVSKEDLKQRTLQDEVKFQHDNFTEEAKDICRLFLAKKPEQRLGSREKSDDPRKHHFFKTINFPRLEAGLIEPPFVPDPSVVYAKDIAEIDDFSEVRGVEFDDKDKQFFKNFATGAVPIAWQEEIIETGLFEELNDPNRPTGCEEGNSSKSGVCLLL

- % of control [1]: 100%
SMILES: CCN(CC)CCCCNc1ncc2cc(-c3cc(OC)cc(OC)c3)c(NC(=O)NC(C)(C)C)nc2n1

SMILES: CC(=O)c1cc(-c2ccccc2OCC2CC2)c2ncccn12
- activity [2]: 89%

SMILES: CN(C)C/C=C/C(=O)Nc1ccc(C(=O)N2CCCC(Nc3ncc(Cl)c(-c4c[nH]c5ccccc45)n3)C2)cc1 (stereo not given)
- % of control [3]: 93%

SMILES: CN(C)CCOc1ccc(-c2nc(-c3ccncc3)c(-c3ccc4c(c3)CC/C4=N\O)[nH]2)cc1
- % of control [4]: 100%

SMILES: O[C@H]1CC[C@H](Nc2ncc3nc(Nc4c(F)cc(F)cc4F)n([C@H]4CCOC4)c3n2)CC1
- % of control [5]: 78%
- % of control [6]: 100%
- % of control [7]: 100%
- % of control [8]: 100%
- % of control [9]: 100%
- % of control [10]: 100%
- % of control [11]: 100%
- % of control [12]: 100%
- % of control [13]: 100%
- % of control [14]: 100%

SMILES: CNC(=O)Nc1ccc(-c2nc(N3CC4CCC(C3)O4)c3cnn(C4CCC5(CC4)OCCO5)c3n2)cc1
- % of control [15]: 100%

SMILES: COCC(=O)NC/C=C/c1ccc2ncnc(Nc3ccc(Oc4ccc(C)nc4)c(C)c3)c2c1 [CP-724714]
- % of control [16]: 100%
- % of control [17]: 82%

- % of inhibition [18]: -3%
SMILES: Cc1ccc(-c2ccc3c(ccc4sc5c(c43)NC[C@@H](C)NC5=O)n2)cn1

SMILES: C=CC(=O)Nc1ccc(C(=O)Nc2[nH]nc3c2CN(C(=O)N[C@H](CN(C)C)c2ccccc2)C3(C)C)cc1
- % of engagement [19]: 9.3%

SMILES: Cc1cc([C@@H](C)Nc2ccccc2C(=O)O)c2nc(N3CCOCC3)cc(=O)n2c1 [AZD-6482]
- % of control [20]: 57%
